Data published in patent US20150284385A1, “CERTAIN DIPEPTIDYL PEPTIDASE INHIBITORS” (SHANGHAI FOCHON PHARMACEUTICAL CO LTD, priority 2012, published 2015).
Read-outs that look alike come from different tables or passages of the source. Each block holds one molecule with its values, some of them ahead of it.

How the values were obtained:
Recombinant human DPP-IV = Recombinant human DPP-IV (Homo sapiens, UniProt P27487); assay: DPP-IV assay in vitro (H-Ala-Pro-AFC fluorescence); format: biochemical; details: 30 min pre-incubation, H-Ala-Pro-AFC 50 μM
Sequence of Recombinant human DPP-IV (P27487 whole entry): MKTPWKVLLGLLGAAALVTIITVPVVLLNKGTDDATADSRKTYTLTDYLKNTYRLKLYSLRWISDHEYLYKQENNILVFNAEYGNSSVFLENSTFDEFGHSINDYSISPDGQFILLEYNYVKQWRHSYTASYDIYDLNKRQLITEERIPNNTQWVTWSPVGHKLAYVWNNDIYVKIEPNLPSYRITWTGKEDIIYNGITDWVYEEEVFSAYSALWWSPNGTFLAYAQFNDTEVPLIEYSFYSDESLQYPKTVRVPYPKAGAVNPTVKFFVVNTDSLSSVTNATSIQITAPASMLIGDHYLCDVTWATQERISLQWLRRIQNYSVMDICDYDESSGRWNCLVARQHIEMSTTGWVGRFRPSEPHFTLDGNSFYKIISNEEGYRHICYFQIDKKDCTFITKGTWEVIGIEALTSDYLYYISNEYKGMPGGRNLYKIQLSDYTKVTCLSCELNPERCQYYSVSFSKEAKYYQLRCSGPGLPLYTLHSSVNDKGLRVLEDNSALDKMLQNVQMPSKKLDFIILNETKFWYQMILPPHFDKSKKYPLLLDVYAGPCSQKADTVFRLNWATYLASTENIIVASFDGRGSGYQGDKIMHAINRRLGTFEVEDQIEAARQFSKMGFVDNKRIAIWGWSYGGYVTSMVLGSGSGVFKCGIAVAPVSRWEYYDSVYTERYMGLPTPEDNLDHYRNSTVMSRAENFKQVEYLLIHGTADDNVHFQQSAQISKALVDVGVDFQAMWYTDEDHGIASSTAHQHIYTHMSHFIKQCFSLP
Experimental: DPP-IV Assay Solutions of test compounds in varying concentrations (10^−5 mol/L, 10^−6 mol/L, 10^−7 mol/L, 10^−8 mol/L, 10^−9 mol/L, 10^−10 mol/L, 10^−11 mol/L, and 10^−12 mol/L) were prepared in dimethyl sulfoxide (DMSO) and then diluted into assay buffer comprising: 10 mM Tris-HCl pH 8.0, 0.2 M NaCl, and 0.1% BSA. Recombinant human DPP-IV (7.8 ng/ml final concentration) was added to the dilutions and pre-incubated for 30 mins at room temperature before the reaction was initiated with H-Ala-Pro-AFC (50 μM final concentration). The total volume of the reaction mixture was 100 μl.
Inhibition constants (IC50) were calculated by GraphPad Prism.

DPP-4 = biological target: T1, DPP-4 (Mus musculus, UniProt P28843); assay: Plasma DPP-4 activity in mice after oral dosing; format: in vivo, ICR mice; details: read-out: DPP-4 Relative activity %; for activity at 1 mg/kg: oral 1 mg/kg; for activity at 3 mg/kg: mice plasma, oral 3 mg/kg
T1 construct: Blood sample was processed to obtain plasma; from tissue; host or cells: plasma of male ICR mice
T1 sequence (P28843 37-760 limits assumed): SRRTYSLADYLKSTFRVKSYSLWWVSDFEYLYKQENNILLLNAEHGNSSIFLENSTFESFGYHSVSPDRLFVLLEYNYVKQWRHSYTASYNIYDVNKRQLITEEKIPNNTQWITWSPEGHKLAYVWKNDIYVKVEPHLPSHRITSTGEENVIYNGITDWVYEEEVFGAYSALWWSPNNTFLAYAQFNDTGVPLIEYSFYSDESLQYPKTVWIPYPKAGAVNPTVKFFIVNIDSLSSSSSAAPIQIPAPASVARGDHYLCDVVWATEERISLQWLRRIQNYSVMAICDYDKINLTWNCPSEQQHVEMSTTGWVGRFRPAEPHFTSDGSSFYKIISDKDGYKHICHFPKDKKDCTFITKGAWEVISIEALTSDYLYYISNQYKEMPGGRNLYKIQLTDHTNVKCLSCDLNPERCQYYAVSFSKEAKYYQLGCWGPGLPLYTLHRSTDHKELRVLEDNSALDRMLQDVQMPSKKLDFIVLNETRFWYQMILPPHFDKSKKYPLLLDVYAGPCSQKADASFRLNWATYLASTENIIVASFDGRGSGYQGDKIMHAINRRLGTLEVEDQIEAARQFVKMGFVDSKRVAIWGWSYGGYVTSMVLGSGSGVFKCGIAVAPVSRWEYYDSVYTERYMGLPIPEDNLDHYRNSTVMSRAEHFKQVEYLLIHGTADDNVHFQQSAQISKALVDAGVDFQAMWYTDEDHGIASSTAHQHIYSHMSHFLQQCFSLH
Experimental: Some of the exemplary compounds were tested in mice to assess inhibition of DPP-4 activity via plasma DPP-4 activity. Male ICR mice (25-30 g) were used for this study. All the mice were fasted at least 3 hours before study. Mice (n=6/group) received vehicle or at least one of the exemplary compounds by oral gavage. The dosing solutions were 0.15 mg/ml for the 3 mg/kg. Dosing volume was 20 mL/kg of body weight for all doses. The vehicle was distilled water. […] Blood sample was processed to obtain plasma (2000 g, 5 min, 4° C.) within 15 min after sampling.
Plasma was collected and tested by fluoremetry. Before the testing, 80 mM MgCl2 buffer was added into the 5 uL serum samples and pre-incubation for 5 minutes at room temperature, then […] of 0.1 mM substrate Gly-Pro-AMC and 20 μL of buffer were added into them. The fluorescence of the mixture was measured every 3 minutes after mixing (excitation at 380 nm; emission at 460 nm). After 6 times of measurements, a time-fluorescence cure was obtained. The slope of the curve would be the activity of DPP-4 in serum. The DPP-4 activity before administration was 100%. The relative activity of DPP-4 in serum was calculated using the formula below:
Relative DPP-4activity=DPP-4activity after dosing/DPP-4activity before dosing×100%.

[1] = Table 4 Test 3, mice plasma, 1 h after dosing
[2] = Table 4 Test 3, mice plasma, 2 h after dosing
[3] = Table 4 Test 3, mice plasma, 4 h after dosing
[4] = Table 4 Test 3, mice plasma, 6 h after dosing
[5] = Table 4 Test 3, mice plasma, 9 h after dosing
[6] = Table 4 Test 3, mice plasma, 12 h after dosing
[7] = Table 4 Test 3, mice plasma, 24 h after dosing
[8] = Table 4 Test 2, mice plasma, 1 h after dosing
[9] = Table 4 Test 2, mice plasma, 2 h after dosing
[10] = Table 4 Test 2, mice plasma, 4 h after dosing
[11] = Table 4 Test 2, mice plasma, 6 h after dosing
[12] = Table 4 Test 2, mice plasma, 9 h after dosing
[13] = Table 4 Test 2, mice plasma, 24 h after dosing
[14] = Table 3, mice plasma, 1 h after dosing
[15] = Table 3, mice plasma, 2 h after dosing
[16] = Table 3, mice plasma, 4 h after dosing
[17] = Table 3, mice plasma, 6 h after dosing
[18] = Table 3, mice plasma, 9 h after dosing
[19] = Table 3, mice plasma, 12 h after dosing
[20] = Table 3, mice plasma, 24 h after dosing

activity at 1 mg/kg (DPP-4; [14]): 7.4 ± 1.2%
activity at 1 mg/kg (DPP-4; [15]): 7 ± 1.1%
activity at 1 mg/kg (DPP-4; [16]): 6.4 ± 1.9%
activity at 1 mg/kg (DPP-4; [17]): 10.5 ± 1.7%
activity at 1 mg/kg (DPP-4; [18]): 10.1 ± 1.2%
activity at 1 mg/kg (DPP-4; [19]): 15 ± 1.6%
activity at 1 mg/kg (DPP-4; [20]): 38.3 ± 5.6%
activity at 1 mg/kg (DPP-4; [1]): 7.4 ± 1.2%
activity at 1 mg/kg (DPP-4; [2]): 7 ± 1.1%
activity at 1 mg/kg (DPP-4; [3]): 6.4 ± 1.9%
activity at 1 mg/kg (DPP-4; [4]): 10.5 ± 1.7%
activity at 1 mg/kg (DPP-4; [5]): 10.1 ± 1.2%
activity at 1 mg/kg (DPP-4; [6]): 15 ± 1.6%
activity at 1 mg/kg (DPP-4; [7]): 38.3 ± 5.6%
SMILES: N[C@H]1Cc2c(nc3cc(-c4n[nH]c(=O)o4)ccn23)C[C@@H]1c1cc(F)c(F)cc1F [Example 12, 5-((7R,8S)-8-Amino-7-(2,4,5-trifluorophenyl)-6,7,8,9-tetrahydrobenzo[4,5]imidazo[1,2-a]pyridin-3-yl)-1,3,4-oxadiazol-2(3H)-one]

activity at 1 mg/kg (DPP-4; [14]): 8.5 ± 2.2%
activity at 1 mg/kg (DPP-4; [15]): 5 ± 1.7%
activity at 1 mg/kg (DPP-4; [16]): 7 ± 2.7%
activity at 1 mg/kg (DPP-4; [17]): 4.4 ± 2.3%
activity at 1 mg/kg (DPP-4; [18]): 6.1 ± 1.7%
activity at 1 mg/kg (DPP-4; [19]): 8.5 ± 1.3%
activity at 1 mg/kg (DPP-4; [20]): 20.2 ± 0.6%
activity at 1 mg/kg (DPP-4; [1]): 8.5 ± 2.2%
activity at 1 mg/kg (DPP-4; [2]): 5 ± 1.7%
activity at 1 mg/kg (DPP-4; [3]): 7 ± 2.7%
activity at 1 mg/kg (DPP-4; [4]): 4.4 ± 2.3%
activity at 1 mg/kg (DPP-4; [5]): 6.1 ± 1.7%
activity at 1 mg/kg (DPP-4; [6]): 8.5 ± 1.3%
activity at 1 mg/kg (DPP-4; [7]): 20.2 ± 0.6%
SMILES: Cn1nc(-c2ccn3c4c(nc3c2)C[C@H](c2cc(F)c(F)cc2F)[C@@H](N)C4)oc1=O [Example 13, 5-((7R,8S)-8-Amino-7-(2,4,5-trifluorophenyl)-6,7,8,9-tetrahydrobenzo[4,5]imidazo[1,2-a]pyridin-3-yl)-3-methyl-1,3,4-oxadiazol-2(3H)-one]

activity at 1 mg/kg (DPP-4; Table 4 Test 1, mice plasma, 1 h after dosing): 20.5 ± 3%
activity at 1 mg/kg (DPP-4; Table 4 Test 1, mice plasma, 2 h after dosing): 18.1 ± 2.2%
activity at 1 mg/kg (DPP-4; Table 4 Test 1, mice plasma, 4 h after dosing): 19.9 ± 2%
activity at 1 mg/kg (DPP-4; Table 4 Test 1, mice plasma, 6 h after dosing): 25.3 ± 2%
activity at 1 mg/kg (DPP-4; Table 4 Test 1, mice plasma, 9 h after dosing): 33.3 ± 1.5%
activity at 1 mg/kg (DPP-4; Table 4 Test 1, mice plasma, 12 h after dosing): 49.5 ± 2.8%
activity at 1 mg/kg (DPP-4; Table 4 Test 1, mice plasma, 24 h after dosing): 90.7 ± 3.2%
activity at 1 mg/kg (DPP-4; [8]): 15.5 ± 1.1%
activity at 1 mg/kg (DPP-4; [9]): 16.5 ± 2%
activity at 1 mg/kg (DPP-4; [10]): 14.9 ± 2.9%
activity at 1 mg/kg (DPP-4; [11]): 23.3 ± 3.8%
activity at 1 mg/kg (DPP-4; [12]): 34.5 ± 2.7%
activity at 1 mg/kg (DPP-4; [13]): 91.1 ± 4.3%
activity at 1 mg/kg (DPP-4; [1]): 17.5 ± 1.4%
activity at 1 mg/kg (DPP-4; [2]): 17 ± 1.7%
activity at 1 mg/kg (DPP-4; [3]): 22 ± 2.1%
activity at 1 mg/kg (DPP-4; [4]): 33.2 ± 2.7%
activity at 1 mg/kg (DPP-4; [5]): 42.5 ± 2.2%
activity at 1 mg/kg (DPP-4; [6]): 58 ± 2.6%
activity at 1 mg/kg (DPP-4; [7]): 81.9 ± 7.4%
SMILES: NC(=O)c1ccn2c3c(nc2c1)C[C@H](c1cc(F)c(F)cc1F)[C@@H](N)C3 [Refference 1, (7R,8S)-8-amino-7-(2,4,5-trifluorophenyl)-6,7,8,9-tetrahydrobenzo[4,5]imidazo[1,2-a]pyridine-3-carboxamide, reference compound]

The remaining lines, values behind:

SMILES: N[C@H]1Cc2c(nc3cc(-c4nnco4)ccn23)C[C@@H]1c1cc(F)c(F)cc1F [Example 1, (7R,8S)-3-(1,3,4-Oxadiazol-2-yl)-7-(2,4,5-trifluorophenyl)-6,7,8,9-tetrahydrobenzo[4,5]imidazo[1,2-a]pyridine-8-amine]
IC50 (Recombinant human DPP-IV): 0.8 nM
activity at 1 mg/kg (DPP-4; [1]): 11.9 ± 1.2%
activity at 1 mg/kg (DPP-4; [2]): 7.4 ± 1%
activity at 1 mg/kg (DPP-4; [3]): 8.6 ± 0.8%
activity at 1 mg/kg (DPP-4; [4]): 8.4 ± 1.3%
activity at 1 mg/kg (DPP-4; [5]): 9 ± 1.2%
activity at 1 mg/kg (DPP-4; [6]): 8.8 ± 0.9%
activity at 1 mg/kg (DPP-4; [7]): 14.4 ± 1.8%
activity at 3 mg/kg (DPP-4; 1 h after dosing): 38.7 ± 4.2%
activity at 3 mg/kg (DPP-4; 2 h after dosing): 34.9 ± 3%
activity at 3 mg/kg (DPP-4; 3 h after dosing): 31.2 ± 2.3%
activity at 3 mg/kg (DPP-4; 5 h after dosing): 39.2 ± 3.3%

SMILES: Cc1nnc(-c2ccn3c4c(nc3c2)C[C@H](c2cc(F)c(F)cc2F)[C@@H](N)C4)o1 [Example 2, (7R,8S)-3-(5-Methyl-1,3,4-oxadiazol-2-yl)-7-(2,4,5-trifluorophenyl)-6,7,8,9-tetrahydrobenzo[4,5]imidazo[1,2-a]pyridin-8-amine]
IC50 (Recombinant human DPP-IV): 1.2 nM
activity at 1 mg/kg (DPP-4; [8]): 9.4 ± 1.8%
activity at 1 mg/kg (DPP-4; [9]): 11.6 ± 2%
activity at 1 mg/kg (DPP-4; [10]): 7.7 ± 2.1%
activity at 1 mg/kg (DPP-4; [11]): 9.6 ± 1.3%
activity at 1 mg/kg (DPP-4; [12]): 7.8 ± 2.7%
activity at 1 mg/kg (DPP-4; [13]): 16.4 ± 3.7%
activity at 3 mg/kg (DPP-4; 1 h after dosing): 17 ± 3.3%
activity at 3 mg/kg (DPP-4; 2 h after dosing): 22.6 ± 3.1%
activity at 3 mg/kg (DPP-4; 3 h after dosing): 22.6 ± 1.1%
activity at 3 mg/kg (DPP-4; 5 h after dosing): 25.9 ± 3.8%

SMILES: N[C@H]1Cc2c(nc3cc(-c4ncon4)ccn23)C[C@@H]1c1cc(F)c(F)cc1F [Example 3, (7R,8S)-3-(1,2,4-Oxadiazol-3-yl)-7-(2,4,5-trifluorophenyl)-6,7,8,9-tetrahydrobenzo[4,5]imidazo[1,2-a]pyridine-8-amine]
IC50 (Recombinant human DPP-IV): 1.7 nM
activity at 1 mg/kg (DPP-4; [8]): 15 ± 0.6%
activity at 1 mg/kg (DPP-4; [9]): 13.6 ± 1.7%
activity at 1 mg/kg (DPP-4; [10]): 8.6 ± 1.1%
activity at 1 mg/kg (DPP-4; [11]): 13.8 ± 2.4%
activity at 1 mg/kg (DPP-4; [12]): 11.8 ± 2.4%
activity at 1 mg/kg (DPP-4; Table 4 Test 2, mice plasma, 12 h after dosing): 15.6 ± 2.4%
activity at 1 mg/kg (DPP-4; [13]): 38.4 ± 4.3%
activity at 3 mg/kg (DPP-4; 1 h after dosing): 16 ± 2.3%
activity at 3 mg/kg (DPP-4; 2 h after dosing): 15 ± 3%
activity at 3 mg/kg (DPP-4; 3 h after dosing): 20 ± 1.8%
activity at 3 mg/kg (DPP-4; 5 h after dosing): 26.5 ± 3.5%

SMILES: N[C@H]1Cc2c(nc3cc(-c4ncno4)ccn23)C[C@@H]1c1cc(F)c(F)cc1F [Example 5, (7R,8S)-3-(1,2,4-Oxadiazol-5-yl)-7-(2,4,5-trifluorophenyl)-6,7,8,9-tetrahydrobenzo[4,5]imidazo[1,2-a]pyridine-8-amine]
IC50 (Recombinant human DPP-IV): 1 nM

SMILES: N[C@H]1Cc2c(nc3cc(-c4nc[nH]n4)ccn23)C[C@@H]1c1cc(F)c(F)cc1F [Example 7, (7R,8S)-3-(1H-1,2,4-Triazol-3-yl)-7-(2,4,5-trifluorophenyl)-6,7,8,9-tetrahydrobenzo[4,5]imidazo[1,2-a]pyridine-8-amine]
IC50 (Recombinant human DPP-IV): 0.9 nM

SMILES: Cc1n[nH]c(-c2ccn3c4c(nc3c2)C[C@H](c2cc(F)c(F)cc2F)[C@@H](N)C4)n1 [Example 8, (7R,8S)-3-(3-methyl-1H-1,2,4-Triazol-5-yl)-7-(2,4,5-trifluorophenyl)-6,7,8,9-tetrahydrobenzo[4,5]imidazo[1,2-a]pyridine-8-amine]
IC50 (Recombinant human DPP-IV): 1.7 nM

SMILES: Cn1ncnc1-c1ccn2c3c(nc2c1)C[C@H](c1cc(F)c(F)cc1F)[C@@H](N)C3 [Example 9, (7R,8S)-3-(1-Methyl-1H-1,2,4-triazol-5-yl)-7-(2,4,5-trifluorophenyl)-6,7,8,9-tetrahydrobenzo[4,5]imidazo[1,2-a]pyridine-8-amine]
IC50 (Recombinant human DPP-IV): 2 nM

SMILES: N[C@H]1Cc2c(nc3cc(-c4nnn[nH]4)ccn23)C[C@@H]1c1cc(F)c(F)cc1F [Example 10, (7R,8S)-3-(1H-Tetrazol-5-yl)-7-(2,4,5-trifluorophenyl)-6,7,8,9-tetrahydrobenzo[4,5]imidazo[1,2-a]pyridin-8-amine]
IC50 (Recombinant human DPP-IV): 0.6 nM
